How the values were obtained:
[1] = tested on: amylase; conditions: prior art statement; cited from earlier work
[2] = tested on: trypsin; experiment: Action of various proteases on Amylostatin-A; assay type: in vitro ADME
[3] = target: chymotrypsin (Bos taurus, UniProt P00766); experiment: Action of various proteases on Amylostatin-A; assay type: in vitro ADME
[4] = target: T1, papain (Carica papaya, UniProt P00784); experiment: Action of various proteases on Amylostatin-A; assay type: in vitro ADME
T1 sequence (P00784 134-345): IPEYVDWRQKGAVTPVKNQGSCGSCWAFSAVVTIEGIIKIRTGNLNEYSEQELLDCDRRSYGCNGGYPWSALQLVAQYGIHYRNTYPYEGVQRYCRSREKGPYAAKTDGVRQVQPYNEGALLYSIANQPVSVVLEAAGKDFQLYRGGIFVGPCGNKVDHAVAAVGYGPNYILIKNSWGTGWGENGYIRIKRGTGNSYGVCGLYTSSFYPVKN

[5] = target: pepsin (Sus scrofa, UniProt P00791); experiment: Action of various proteases on Amylostatin-A; assay type: in vitro ADME
[6] = Stability in buffer solution (pH and heat); assay type: physicochemical
[7] = Solubility; assay type: physicochemical
[8] = tested on: digestion and absorption of starch; experiment: Biological test on digestibility of starch; assay type: in vivo, male rats of Wistar strain; conditions: rats, 4 hours
Procedure: An experiment concerning the inhibitory effect of Amylostatin-A on the digestion and absorption of starch in vivo was carried out using sound male rats of Wistar strain weighing from 250 to 300g. After they had been made to fast, receiving only water for 48 hours, 60 rats were selected and divided into 10 groups of each 5 or 10 as shown in Table 4.
Rats in control groups were given either 2.5 ml of an isotonic sodium chloride solution in which 300 mg of soluble starch (Wako Junyaku Co., Inc.) was dissolved or 2.5 ml of an isotonic sodium chloride solution in which 300 mg of corn starch (Japanese Pharmacopia) was suspended. The rats were subjected to a laparotomy, the solution was injected into the stomach and the incision site was sutured. Rats in test groups were given the same amount and kinds of solutions as given to the rats in control groups except that varying amounts of crude Amylostatin-A obtained according to the methods of Example 1 were added as shown in Table 4. The test solutions were administered in the same manner as the control solutions.
After the lapse of definite periods of time, all rats were again laparotomized at the site of the original incision and all contents of the stomach and small intestines were removed by washing with an isotonic sodium chloride solution. To these washings containing residual starch, 25 ml of 1N hydrochloric acid was added. The mixture was heated to carry the hydrolytic reaction to completion and the quantity of reducing sugar formed was determined by Somogyi's method.

[9] = tested on: bacterial α-amylase (crystalline); experiment: Assay of amylase inhibitory activity (units); assay type: biochemical; conditions: purified powdery preparation, Example 1
Procedure: The reaction mixture consisting of 4 ml of a 1.5% soluble starch solution in 0.1M acetate buffer solution at pH 5.5, 0.5 ml of distilled water and 0.5 ml of the amylase solution to be assayed (amylase or bacterial α-amylase (crystalline) ) is incubated at 37° C. for 10 minutes and the reaction is terminated by adding a mixture of 5:1 by volume of 0.5N acetic acid and 0.5N hydrochloric acid. From this solution, 0.2 ml is withdrawn and added to 5 ml of N/3000 iodine solution and the absorbency is measured at 660 nm. The amylase activity per one ml of the enzyme solution expressed in units is calculated as follows: [formula] in which D is the optical density of the enzyme solution and Do is the optical density of the control.
The reaction mixture consisting of 0.5 ml of 2 × 10^^-4 % of bacterial α-amylase (crystalline) and 0.5 ml of the solution of Amylostatin-A is incubated at 37° C. for 10 minutes. Any residual amylase activity is determined according to the method of assay of amylase activity described above. One unit of amylase inhibitory activity is defined as the amount of inhibitory activity necessary to inactivate one unit of amylase.

pepsin, sequence (P00791 60-385): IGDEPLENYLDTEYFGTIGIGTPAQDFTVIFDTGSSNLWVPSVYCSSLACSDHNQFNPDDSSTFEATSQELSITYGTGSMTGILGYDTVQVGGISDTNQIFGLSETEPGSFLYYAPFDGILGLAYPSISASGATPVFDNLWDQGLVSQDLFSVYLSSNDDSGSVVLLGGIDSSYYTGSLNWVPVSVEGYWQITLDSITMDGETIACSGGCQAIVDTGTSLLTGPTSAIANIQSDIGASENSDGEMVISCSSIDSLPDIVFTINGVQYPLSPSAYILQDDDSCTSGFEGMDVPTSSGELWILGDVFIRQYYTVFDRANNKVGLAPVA

OC[C@H]1NC(O)[C@H](O)[C@@H](O)[C@@H]1O (stereo partly shown) [Nojirimycin]
amylase inhibitory activities [1]: extremely low

Amylostatin-A
inactivation of the inhibitory activity on amylase by protease [2]: unable to inactivate | inactivation of the inhibitory activity on amylase by protease [3]: unable to inactivate | inactivation of the inhibitory activity on amylase by protease [4]: unable to inactivate | inactivation of the inhibitory activity on amylase by protease [5]: unable to inactivate | Stability ([6]; buffer solution, pH 1 to 12, 37° C. for 12 hours): substantial stability | Stability ([6]; heated at 100° C. for 30 minutes, pH 1 to 12): substantial stability | Solubility ([7]; acetone): substantially insoluble | Solubility ([7]; chloroform): substantially insoluble | Solubility ([7]; ethanol): substantially insoluble | Solubility ([7]; methanol): substantially insoluble | Solubility ([7]; pyridine): soluble | Solubility ([7]; water): soluble | residual % of starch (average) ([8]; 300 mg cornstarch into the stomach, 2.5 mg crude Amylostatin-A added): 82.5% | residual % of starch (average) ([8]; 300 mg cornstarch into the stomach, 5 mg crude Amylostatin-A added): 93.6% | residual % of starch (average) ([8]; 300 mg cornstarch into the stomach, 10 mg crude Amylostatin-A added): 92.5% | residual % of starch (average) ([8]; 300 mg soluble starch (dissolved on heating) into the stomach, 5 mg crude Amylostatin-A added): 63.8% | residual % of starch (average) ([8]; 300 mg soluble starch (dissolved on heating) into the stomach, 10 mg crude Amylostatin-A added): 65.7% | amylase inhibitory activity [9]: 3.5 × 10^4 units per mg

Reference: patent publication US4010258A, “Microbial amylase inhibitor and preparation thereof with the use of streptomyces diasticus var. amylostaticus” (Ajinomoto Co., Inc., priority 1974, dated 1977)
